Target: T1, human recombinant adenosine A3 receptors (Homo sapiens, UniProt P0DMS8)
T1 construct: host or cells: CHO-K1 (Chinese hamster ovary K1 cells)
T1 sequence (P0DMS8 1-318): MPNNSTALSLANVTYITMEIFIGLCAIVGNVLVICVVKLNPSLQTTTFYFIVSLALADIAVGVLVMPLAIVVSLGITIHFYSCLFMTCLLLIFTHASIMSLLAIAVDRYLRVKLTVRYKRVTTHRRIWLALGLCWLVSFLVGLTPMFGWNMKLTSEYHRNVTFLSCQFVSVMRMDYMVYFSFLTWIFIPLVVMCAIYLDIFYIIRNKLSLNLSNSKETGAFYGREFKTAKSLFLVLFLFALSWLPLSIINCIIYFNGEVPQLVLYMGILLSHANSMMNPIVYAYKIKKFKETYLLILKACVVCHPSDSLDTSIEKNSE
Assay: Test for affinity for adenosine A3 receptor ([125I]AB-MECA binding to CHO-K1 cell membranes)
Conditions: for Affinity 3 μM: 3 μM trehalose compound; for Affinity 3 μM / Affinity 10 μM: 0.5 nM [125I]AB-MECA, 60 min, 25° C.; for Affinity 10 μM: 10 μM trehalose compound; for IC50: [125I]AB-MECA displacement
Protocol: Specifically, ovarium K1 cells of a Chinese hamster (obtained from Euroscreen S. A.; hereunder referred to as “CHO-K1”) expressing human recombinant adenosine A3 receptors were cultured in a modified HEPES buffer free of Ca^2+ and Mg^2+. Subsequently, the cultured CHO-K1 was scraped and homogenized in 50 mM of ice-cooled Tris-HCl (pH 7.4). The resulting mixture was subjected to centrifugation at 48,000×g for 15 minutes to obtain a cell membrane pellet. The obtained cell membrane pellet was washed twice with another modified HEPES buffer, and then subjected again to centrifugation. The washed cell membrane pellet was suspended again in a small quantity of 50 mM Tris-HCl (pH 7.4).
The concentration of the adenosine A3 receptor in the obtained cell membrane pellet was measured as follows. A 0.5 nM amount of [^125I] […] Thereafter, 50 mM of ice-cooled Tris-HCl (pH 7.4) was added thereto to halt the reaction, and then the cell membrane pellet was filtrated out using a glass fiber filter. The filtered cell membrane pellet was washed 3 times with an ice-cooled buffer so as to remove excessive ligands. The radioactivity in the resulting cell membrane pellet on a filter was measured using a scintillation counter (Type 1470 Automatic Counter; PerkinElmer, Inc.).
Separately, in order to measure nonspecific bindings of [^125I] AB-MECA other than to an adenosine A3 receptor, 1 μM of […] (a selective radioagonist of A3 receptor N^6-(3-iodobenzyl)-5′-(N-[…]) adenosine) was further added to the obtained suspension of the cell membrane pellet, and the same measurement was carried out as in the aforesaid binding experiment. The average specific binding value of [^125I] AB-MECA to the adenosine A3 receptor was calculated based on the results obtained in the above experiment.
Further, in a Comparative Example, the same measurement was carried out with respect to the compounds taught in Non-Patent Document 1 and Non-Patent Document 2 (in the chemical formula of Table 1, R^1=R^3=octyl, R^2=R^4=heptyl, X=X′=OH, and Y=Y′═O).

CCCCCCC(CCCCCC)C(=O)OCC1OC(OC2OC(COC(=O)C(CCCCCC)CCCCCC)C(O)C(O)C2O)C(O)C(O)C1O (stereo not drawn) [Production Example F-10, 6,6′-bis-O-(2-hexyloctanoyl)-α,α′-trehalose] was tested, and the “Affinity 3 μM” value was 65 and the “Affinity 10 μM” value was 66.

With CCCCCCC(OC)C(CCCCC)C(=O)NCC1OC(OC2OC(CNC(=O)C(CCCCC)C(CCCCCC)OC)C(O)C(O)C2O)C(O)C(O)C1O [Production Example F-16, 6,6′-bis-N-[(2R,3R)-3-methoxy-2-pentylnonanoylamino]-6,6′-dideoxy-α,α′-trehalose] the “Affinity 3 μM” value was 57 and the “Affinity 10 μM” value was 96.

With CCCCC[C@@H](O)[C@@H](CCCC)C(=O)OC[C@H]1O[C@H](O[C@H]2O[C@H](COC(=O)[C@@H](CCCC)[C@@H](O)CCCCC)[C@@H](O)[C@H](O)[C@H]2O)[C@H](O)[C@@H](O)[C@@H]1O [Production Example F-12, 6-O-[(2R,3R)-2-butyl-3-hydroxyoctanoyl]-6′-O-[(2S,3S)-2-butyl-3-hydroxyoctanoyl]-α,α′-trehalose] the “Affinity 10 μM” value was 48.

In the case of CCCCCCC[C@@H](O)[C@@H](CCCCCC)C(=O)OC[C@H]1O[C@H](O[C@H]2O[C@H](COC(=O)[C@@H](CCCCCC)[C@@H](O)CCCCCCC)[C@@H](O)[C@H](O)[C@H]2O)[C@H](O)[C@@H](O)[C@@H]1O [Production Example F-14, 6-O-[(2R,3R)-3-hydroxy-2-hexyldecanoyl]-6′-O-[(2S,3S)-3-hydroxy-2-hexyldecanoyl]-α,α′-trehalose], the “Affinity 10 μM” value is reported as 77.

With CCCCCCCC(CCCCC)C(=O)NCC1OC(OC2OC(CNC(=O)C(CCCCC)CCCCCCC)C(O)C(O)C2O)C(O)C(O)C1O (stereo not drawn) [Production Example F-18, 6,6′-bis-N-(2-pentylnonanoylamino)-6,6′-dideoxy-α,α′-trehalose] the “Affinity 3 μM” value was 33 and the “Affinity 10 μM” value was 89.

For CCCCCCCC(O)C(CCCCCC)C(=O)OCC1OC(OC2OC(COC(=O)C(CCCCCC)C(O)CCCCCCC)C(O)C(O)C2O)C(O)C(O)C1O [Production Example F-6, 6,6′-bis-O-[(2S,3S)-2-hexyl-3-hydroxydecanoyl]-α,α′-trehalose], the “Affinity 10 μM” value (listed as F-6) was 59.

CCCCCC[C@@H](O)[C@@H](CCCCC)C(=O)NC[C@H]1O[C@H](O[C@H]2O[C@H](CNC(=O)[C@H](CCCCC)[C@H](O)CCCCCC)[C@@H](O)[C@H](O)[C@H]2O)[C@H](O)[C@@H](O)[C@@H]1O [Production Example F-15, 6,6′-bis-N-[(2R,3R)-3-hydroxy-2-pentylnonanoylamino]-6,6′-dideoxy-α,α′-trehalose] was tested, and the “Affinity 3 μM” value was 29 and the “Affinity 10 μM” value was 69.

For CCCCCC[C@@H](O)[C@@H](CCCCC)C(=O)OC[C@H]1O[C@H](O[C@H]2O[C@H](COC(=O)[C@@H](CCCCC)[C@@H](O)CCCCCC)[C@@H](O)[C@H](O)[C@H]2O)[C@H](O)[C@@H](O)[C@@H]1O [Production Example F-13, 6-O-[(2R,3R)-3-hydroxy-2-pentylnonanoyl]-6′-O-[(2S,3S)-3-hydroxy-2-pentylnonanoyl]-α,α′-trehalose], the “Affinity 3 μM” value was 54, the “Affinity 10 μM” value was 97 and the IC50 was 2750 nM.

In the case of CCCCCCC(OC)C(CCCCC)C(=O)OCC1OC(OC2OC(COC(=O)C(CCCCC)C(CCCCCC)OC)C(O)C(O)C2O)C(O)C(O)C1O [Production Example F-7, 6,6′-bis-O-[(2R,3R)-3-methoxy-2-pentylnonanoyl]-α,α′-trehalose], the “Affinity 3 μM” value is reported as 84 and the “Affinity 10 μM” value is reported as 96.

In the case of CCCCC(CCCC)C(=O)OC[C@H]1O[C@H](O[C@H]2O[C@H](COC(=O)C(CCCC)CCCC)[C@@H](O)[C@H](O)[C@H]2O)[C@H](O)[C@@H](O)[C@@H]1O [Production Example F-8, 6,6′-bis-O-(2-butylhexanoyl)-α,α′-trehalose], the “Affinity 3 μM” value is reported as 14 and the “Affinity 10 μM” value is reported as 72.

For CCCCCCC(CCCCCC)C(=O)NCC1OC(OC2OC(CNC(=O)C(CCCCCC)CCCCCC)C(O)C(O)C2O)C(O)C(O)C1O (stereo not drawn) [Production Example F-17, 6,6′-bis-N-(2-hexyloctanoylamino)-6,6′-dideoxy-α,α′-trehalose], the “Affinity 3 μM” value was 22.

CCCCCC[C@@H](O)[C@@H](CCCCC)C(=O)OC[C@H]1O[C@H](O[C@H]2O[C@H](COC(=O)[C@H](CCCCC)[C@H](O)CCCCCC)[C@@H](O)[C@H](O)[C@H]2O)[C@H](O)[C@@H](O)[C@@H]1O [Production Example F-1, 6,6′-bis-O-[(2R,3R)-3-hydroxy-2-pentylnonanoyl]-α,α′-trehalose] was tested, and the “Affinity 3 μM” value was 56, the “Affinity 10 μM” value was 97 and the IC50 was 2610 nM.

CCCCCCCC(O)C(CCCCCC)C(=O)OCC1OC(OC2OC(COC(=O)C(CCCCCC)C(O)CCCCCCC)C(O)C(O)C2O)C(O)C(O)C1O [Production Example F-5, 6,6′-bis-O-[(2R,3R)-2-hexyl-3-hydroxydecanoyl]-α,α′-trehalose] was tested, and the “Affinity 10 μM” value (listed as F-5) was 83.

In the case of CCCCCC[C@@H](O)[C@H](CCCCC)C(=O)OC[C@H]1O[C@H](O[C@H]2O[C@H](COC(=O)[C@@H](CCCCC)[C@H](O)CCCCCC)[C@@H](O)[C@H](O)[C@H]2O)[C@H](O)[C@@H](O)[C@@H]1O [Production Example F-4, 6,6′-bis-O-[(2S,3R)-3-hydroxy-2-pentylnonanoyl]-α,α′-trehalose], the “Affinity 3 μM” value is reported as 32 and the “Affinity 10 μM” value is reported as 91.

In the case of CCCCCC(CCCCC)C(=O)OC[C@H]1O[C@H](O[C@H]2O[C@H](COC(=O)C(CCCCC)CCCCC)[C@@H](O)[C@H](O)[C@H]2O)[C@H](O)[C@@H](O)[C@@H]1O [Production Example F-9, 6,6′-bis-O-(2-pentylheptanoyl)-α,α′-trehalose], the “Affinity 3 μM” value is reported as 97, the “Affinity 10 μM” value is reported as 99 and the IC50 is reported as 459 nM.

CCCCCCCCC(O)C(CCCCCCC)C(=O)OCC1O[C@H](O[C@@H]2OC(COC(=O)C(CCCCCCC)C(O)CCCCCCCC)[C@@H](O)C(O)C2O)C(O)C(O)[C@@H]1O (some centres unmarked) [Comparative Example, reference compound] was tested, and the “Affinity 10 μM” value was 29.

CCCCCC[C@H](O)[C@H](CCCCC)C(=O)OC[C@H]1O[C@H](O[C@H]2O[C@H](COC(=O)[C@@H](CCCCC)[C@@H](O)CCCCCC)[C@@H](O)[C@H](O)[C@H]2O)[C@H](O)[C@@H](O)[C@@H]1O [Production Example F-2, 6,6′-bis-O-[(2S,3S)-3-hydroxy-2-pentylnonanoyl]-α,α′-trehalose] was tested, and the “Affinity 3 μM” value was 57 and the “Affinity 10 μM” value was 86.

CCCCCCCC(CCCCC)C(=O)OC[C@H]1O[C@H](O[C@H]2O[C@H](COC(=O)C(CCCCC)CCCCCCC)[C@@H](O)[C@H](O)[C@H]2O)[C@H](O)[C@@H](O)[C@@H]1O (stereo partly drawn) [Production Example F-11, 6,6′-bis-O-(2-pentylnonanoyl)-α,α′-trehalose] was tested, and the “Affinity 3 μM” value was 74 and the “Affinity 10 μM” value was 62.

CCCCCC[C@H](O)[C@@H](CCCCC)C(=O)OC[C@H]1O[C@H](O[C@H]2O[C@H](COC(=O)[C@H](CCCCC)[C@@H](O)CCCCCC)[C@@H](O)[C@H](O)[C@H]2O)[C@H](O)[C@@H](O)[C@@H]1O [Production Example F-3, 6,6′-bis-O-[(2R,3S)-3-hydroxy-2-pentylnonanoyl]-α,α′-trehalose] was tested, and the “Affinity 3 μM” value was 59 and the “Affinity 10 μM” value was 100.

— patent US8163713B2, “Trehalose compound and pharmaceutical comprising the compound” (Otsuka Chemical Co., Ltd., priority 2006, dated 2012)
